The results in this text go back to ChEMBL document CHEMBL3399954, “Design and synthesis of new tricyclic indoles as potent modulators of the S1P1 receptor” (Bioorg Med Chem Lett, 2015).

A short description of data set [1]: Clearance in Sprague-Dawley rat at 1 mg/kg, iv and 1 mg/kg, po. The class given is ADME, organism-based. The settings on record: in vivo.
The nature of data set [2]: Half life in Sprague-Dawley rat at 1 mg/kg, iv. The class given is ADME, organism-based. Also on record: dose 1 mg/kg, route intravenous. The settings on record: in vivo.
A short description of data set [3]: AUClast in Sprague-Dawley rat at 1 mg/kg, iv and 1 mg/kg, po. The class given is ADME, organism-based. The settings on record: plasma.
A short description of data set [4]: Half life in rat liver microsomes. Type of data set: ADME. A general note: Microsomes from liver hold many membrane-bound enzymes, among them those of drug oxidation.
Data set [5] in a line: Oral bioavailability in Sprague-Dawley rat at 1 mg/kg. The class given is ADME, organism-based. Conditions: in vivo.
Data set [6] is described as follows: Half life in human liver microsomes. Type of data set: ADME.
A short description of data set [7]: Half life in mouse liver microsomes. The class given is ADME.
Data set [8] is described as follows: Volume of distribution at steady state in Sprague-Dawley rat at 1 mg/kg, iv and 1 mg/kg, po. Conditions: in vivo, read-out: Vdss. Type of data set: ADME, organism-based.

Each structure is given as a SMILES string. A value given as a limit tells only on which side of the number the result lay.

In general, half-life refers to the time in which the quantity being followed falls by half. A higher half-life goes with slow loss. A word on the AUC(0-t): it is exposure summed from dosing to a finite time, without extrapolation to infinity. As a reminder, the bioavailability is the share of a dose that reaches the circulation, judged against a reference dose that is usually intravenous. A low value points to little systemic uptake. In data set [1], `O=C(O)CC1NCCc2c1[nH]c1ccc(OCc3ccc(C4CCCC4)c(C(F)(F)F)c3)cc21` (single isomer, unassigned) gave a clearance of 10.7 mL/min/kg. The half-life in data set [2] is 9.49 h; in data set [4], > 1 h; in data set [6] it was > 1 h; in data set [7] it was > 1 h. In addition, in data set [3], the AUC(0-t) was found to be 1320 ng·h/mL. The bioavailability in data set [5] was < 2%. In addition, in data set [8], the Vd worked out at 6.71 L/kg.
